The record followed here is patent US10407409B2, “6-(5-hydroxy-1H-pyrazol-1-yl)nicotinamide inhibitors of PHD” (Takeda Pharmaceutical Company Limited, priority 2013, dated 2019).

Where a name gives a salt, the structure may show the parent alone.

In test [1] the test system is HIF1a protein in H9c2 rat cardiomyocytes. Put plainly: Cell-based HIF-alpha stabilization assay (inhibition of PHD in cells). The settings on record: 24 hrs compound incubation, HIF1a protein by ELISA; for EC50: Rattus norvegicus, H9c2, 24 h, read-out: Inhibition of PHD in cells (pEC50) (converted). As to the method: Example B Inhibition of PHD in Cells
PHD Inhibition is Determined Using (Secondary Assay)
Cell-Based HIF-Alpha Stabilization Assay:
H9c2 rat cardiomyocytes (ATCC) were seeded in 96-well tissue culture microplates and cultured for 24 hours prior to addition of compounds (11 point range of serial dilutions) or dimethylsulfoxide vehicle. After 24 hrs of compound incubation, whole cell extracts were prepared by lysing cells in cell extraction buffer containing protease and phosphatase inhibitors (Meso-Scale Discovery). HIF1a protein content was assessed by ELISA (Meso-Scale Discovery) and expressed as a % relative to the maximum response obtained from the positive control, desferrioxamine (Sigma-Aldrich). Compound EC50s were obtained by curve-fitting using XLfit4 MicroSoft Excel curve-fitting software. Compound EC50pos were obtained using XLfit4 to calculate the compound concentration that results in 50% of the desferrioxamine maximum response.

The target of test [2] is PHD2 enzyme (residues 181-417) (Homo sapiens (Human), UniProt Q9GZT9). The experiment in a line: Inhibition of PHD enzyme (LC/MS peptide hydroxylation assay). The settings on record: PHD2 (residues 181-417) 5 nM, 60 min pre-incubation; -log(IC50), IC50 molar. It counts as biochemical. As to the method:
Example A Inhibition of PHD Enzyme
The IC50 values for the PHD2 enzyme (residues 181-417) were determined by mixing increasing amounts of inhibitor with a fixed amount of enzyme (5 nM, final concentration) and Biotin labeled peptide (Biotin-Asp-Leu-Glu-Met-Leu-Ala-Pro-Tyr-Ile-Pro-Met-Asp-Asp-Asp-Phe-Gln-Leu, 1 uM final concentration) and 2-Oxyglutarate (2 uM final concentration) in 50 mM HEPES, 50 mM KCl, 0.5 mM TCEP, 2 uM FeCl2, 0.1 mg/ml BSA, at pH 7.3. The reaction was conducted by pre-incubating the enzyme in the presence of inhibitor for 60 min at room temperature. The activity of the free enzyme was measured by adding the peptide, the 2-Oxoglutarate (see above for final concentrations), and Ascorbic Acid (1 mM final concentration). The enzymatic activity was quenched after 60 min by adding an excess of a tight binding inhibitor to the assay mixture. The amount of product released was measured by using a LC/MS system (Agilent HPLC with Applied Biosystems API3000 Mass Spectrometer). Data were analyzed using the classical isotherm equation for the determination of IC50 values and are pIC50, i.e., −log(IC50), where IC50 is molar concentration and are reported as pIC50, i.e., −log(IC50), where IC50 is molar concentration.

PHD2 enzyme (residues 181-417), sequence (Q9GZT9 181-417): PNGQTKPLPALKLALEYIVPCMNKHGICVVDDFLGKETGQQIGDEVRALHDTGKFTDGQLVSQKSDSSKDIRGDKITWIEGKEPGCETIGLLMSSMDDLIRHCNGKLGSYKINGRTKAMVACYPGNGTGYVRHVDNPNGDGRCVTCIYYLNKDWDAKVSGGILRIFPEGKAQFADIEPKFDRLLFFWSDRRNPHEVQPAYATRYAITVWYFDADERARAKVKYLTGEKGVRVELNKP

Consider `N#Cc1ccc(-c2cnn(-c3ccc(C(=O)NC4CCc5ccc(Cl)cc54)cn3)c2O)cc1` (stereo not shown) [Example 79, N-(6-chloro-2,3-dihydro-1H-inden-1-yl)-6-(4-(4-cyanophenyl)-5-hydroxy-1H-pyrazol-1-yl)nicotinamide], for which the EC50 in test [1] is 1.32 µM.
For `COc1cc(-c2cnn(-c3ccc(C(=O)NCCC4CCOCC4)cn3)c2O)ccn1` [Example 11, 6-(5-hydroxy-4-(2-methoxypyridin-4-yl)-1H-pyrazol-1-yl)-N-(2-(tetrahydro-2H-pyran-4-yl)ethyl)nicotinamide], the EC50 in test [1] is 0.537 µM.
Regarding `CC1CCCCN1CCCNC(=O)c1ccc(-n2ncc(-c3ccc(C#N)cc3)c2O)nc1` (stereo not shown) [Example 90, 6-(4-(4-cyanophenyl)-5-hydroxy-1H-pyrazol-1-yl)-N-(3-(2-methylpiperidin-1-yl)propyl)nicotinamide], in test [2], the “PHD Inhibition (pIC50)” value is 6.95.
In the case of `CCN1CCC(CN(C)C(=O)c2ccc(-n3ncc(-c4ccc(C#N)cc4)c3O)nc2)C1` (stereo not shown) [Example 366, 6-(4-(4-cyanophenyl)-5-hydroxy-1H-pyrazol-1-yl)-N-((1-ethylpyrrolidin-3-yl)methyl)-N-methylnicotinamide], the EC50 in test [1] was 3.8 µM.
Consider `CC1CC(CNC(=O)c2ccc(-n3ncc(-c4ccc(C#N)cc4)c3O)nc2)C1` (stereo not shown) [Example 257, 6-(4-(4-cyanophenyl)-5-hydroxy-1H-pyrazol-1-yl)-N-((3-methylcyclobutyl)methyl)nicotinamide], for which, in test [2], the “PHD Inhibition (pIC50)” value turned out to be 7.24.
Consider `C[C@@H](NC(=O)c1ccc(-n2ncc(-c3ccc(C#N)cc3)c2O)nc1)C1CC1` [Example 88, (R)-6-(4-(4-cyanophenyl)-5-hydroxy-1H-pyrazol-1-yl)-N-(1-cyclopropylethyl)nicotinamide], for which the “Inhibition of PHD in cells (pEC50)” value in test [1] turned out to be 5.50.
For the compound `Cc1cc(-c2cnn(-c3ccc(C(=O)NCC4CCOCC4)cn3)c2O)cc(C)n1` [Example 224, 6-(4-(2,6-dimethylpyridin-4-yl)-5-hydroxy-1H-pyrazol-1-yl)-N-((tetrahydro-2H-pyran-4-yl)methyl)nicotinamide], the “PHD Inhibition (pIC50)” value in test [2] is given as 5.83.
With `COc1cc(-c2cnn(-c3ccc(C(=O)NCCC4CCCN4C)cn3)c2O)ccn1` (stereo not shown) [Example 23, 6-(5-hydroxy-4-(2-methoxypyridin-4-yl)-1H-pyrazol-1-yl)-N-(2-(1-methylpyrrolidin-2-yl)ethyl)nicotinamide], the EC50 in test [1] is 1 µM.
`COc1cc(-c2cnn(-c3ccc(C(=O)NC(CO)C4CCOC4)cn3)c2O)ccn1` (stereo not shown) [Example 27, N-(2-hydroxy-1-(tetrahydrofuran-3-yl)ethyl)-6-(5-hydroxy-4-(2-methoxypyridin-4-yl)-1H-pyrazol-1-yl)nicotinamide]: in test [2], the “PHD Inhibition (pIC50)” value stood at 6.99.
`COc1cc(-c2cnn(-c3ccc(C(=O)NCCCCO)cn3)c2O)ccn1` [Example 28, 6-(5-hydroxy-4-(2-methoxypyridin-4-yl)-1H-pyrazol-1-yl)-N-(4-hydroxybutyl)nicotinamide]: the “PHD Inhibition (pIC50)” value in test [2] is 7.01.
Same read-out and setting: then `Cc1cc(C#N)ccc1-c1cnn(-c2ccc(C(=O)N3CCN4CCCC4C3)cn2)c1O` (stereo not shown) [Example 407, 4-(5-hydroxy-1-(5-(octahydropyrrolo[1,2-a]pyrazine-2-carbonyl)pyridin-2-yl)-1H-pyrazol-4-yl)-3-methylbenzonitrile], with 8.23.
Consider `COc1cc(-c2cnn(-c3ccc(C(=O)NCCCN4CCCCC4)cn3)c2O)ccn1` [Example 18, 6-(5-hydroxy-4-(2-methoxypyridin-4-yl)-1H-pyrazol-1-yl)-N-(3-(piperidin-1-yl)propyl)nicotinamide], for which the EC50 in test [1] is 0.933 µM.
`Cc1cc(C#N)ccc1-c1cnn(-c2ccc(C(=O)N3CCN(C)C[C@@H]3C)cn2)c1O` [Example 391, (S)-4-(1-(5-(2,4-dimethylpiperazine-1-carbonyl)pyridin-2-yl)-5-hydroxy-1H-pyrazol-4-yl)-3-methylbenzonitrile]: the EC50 in test [1] is 1.55 µM.
Still for that read-out and setting: then `COCCNC(=O)c1cnc(-n2ncc(-c3ccc(C#N)cc3)c2O)cc1C` [Example 276, 6-(4-(4-cyanophenyl)-5-hydroxy-1H-pyrazol-1-yl)-N-(2-methoxyethyl)-4-methylnicotinamide], with 3.63 µM.
As for `O=C(NCC1CCOCC1)c1ccc(-n2ncc(-c3ccncc3)c2O)nc1` [Example 226, 6-(5-hydroxy-4-(pyridin-4-yl)-1H-pyrazol-1-yl)-N-((tetrahydro-2H-pyran-4-yl)methyl)nicotinamide], in test [2], the “PHD Inhibition (pIC50)” value worked out at 6.6.
Turning to `COCCCN(C)C(=O)c1ccc(-n2ncc(-c3ccc(C#N)cc3OC)c2O)nc1` [Example 240, 6-(4-(4-cyano-2-methoxyphenyl)-5-hydroxy-1H-pyrazol-1-yl)-N-(3-methoxypropyl)-N-methylnicotinamide], in test [2], the “PHD Inhibition (pIC50)” value is 6.63.
The same measure, in the same setting: then `CN(C)c1cc(-c2cnn(-c3ccc(C(=O)NCC4CCOCC4)cn3)c2O)ccn1` [Example 212, 6-(4-(2-(dimethylamino)pyridin-4-yl)-5-hydroxy-1H-pyrazol-1-yl)-N-((tetrahydro-2H-pyran-4-yl)methyl)nicotinamide], with 6.21.
For the compound `CNCCCNC(=O)c1ccc(-n2ncc(-c3ccc(C#N)cc3)c2O)nc1` [Example 272, 6-(4-(4-cyanophenyl)-5-hydroxy-1H-pyrazol-1-yl)-N-(3-(methylamino)propyl)nicotinamide hydrochloride], in test [2], the “PHD Inhibition (pIC50)” value is 7.03.
The same measure, in the same setting: then `CN1CCC(CNC(=O)c2ccc(-n3ncc(-c4ccc(C#N)cc4)c3O)nc2)C1` (stereo not shown) [Example 92, 6-(4-(4-cyanophenyl)-5-hydroxy-1H-pyrazol-1-yl)-N-((1-methylpyrrolidin-3-yl)methyl)nicotinamide], with 6.87.
Still for that read-out and setting: then `CCN1CCC(NC(=O)c2ccc(-n3ncc(-c4ccnc(OC)c4)c3O)nc2)CC1` [Example 37, N-(1-ethylpiperidin-4-yl)-6-(5-hydroxy-4-(2-methoxypyridin-4-yl)-1H-pyrazol-1-yl)nicotinamide], with 7.4; and `N#Cc1ccc(-c2cnn(-c3ccc(C(=O)NCC4CCC4)cn3)c2O)cc1` [Example 256, 6-(4-(4-cyanophenyl)-5-hydroxy-1H-pyrazol-1-yl)-N-(cyclobutylmethyl)nicotinamide], with 6.72.
Take `COc1cc(-c2cnn(-c3ccc(C(=O)NCCCN(C)C)cn3)c2O)ccn1` [Example 44, N-(3-(dimethylamino)propyl)-6-(5-hydroxy-4-(2-methoxypyridin-4-yl)-1H-pyrazol-1-yl)nicotinamide]: the “PHD Inhibition (pIC50)” value in test [2] worked out at 7.3.
For `COCCC1(NC(=O)c2ccc(-n3ncc(-c4ccc(C#N)cc4F)c3O)nc2)CC1` [Example 210, 6-(4-(4-cyano-2-fluorophenyl)-5-hydroxy-1H-pyrazol-1-yl)-N-(1-(2-methoxyethyl)cyclopropyl)nicotinamide], the “PHD Inhibition (pIC50)” value in test [2] turned out to be 8.3.
As for `N#Cc1ccc(-c2cnn(-c3ccc(C(=O)N[C@H]4CCNC4)cn3)c2O)cc1` [Example 73, (S)-6-(4-(4-cyanophenyl)-5-hydroxy-1H-pyrazol-1-yl)-N-(pyrrolidin-3-yl)nicotinamide], in test [2], the “PHD Inhibition (pIC50)” value amounted to 7.2.
Still for that read-out and setting: then `CCCN1CCCN(C(=O)c2ccc(-n3ncc(-c4ccc(C#N)cc4C)c3O)nc2)CC1` [Example 424, 4-(5-hydroxy-1-(5-(4-propyl-1,4-diazepane-1-carbonyl)pyridin-2-yl)-1H-pyrazol-4-yl)-3-methylbenzonitrile], with 7.70.
